Experimental data as given in PubChem BioAssay AID1919010 (Molecular Pharmacology Branch, DTP, NCI, 2023).

Tested on: Hs578T complex spheroid growth, percent test/control
Assay: Anticancer human tumor Hs578T cell line growth inhibition [AhR];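 also: luminescent viability signal as a proxy for spheroid growth; spheroids exposed to agents for one week after three days of growth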
Conditions: for IC50: curve of first compound; for viability, T/C: stronger effect = lower value
In short: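 Spheroids combined tumor cells with HUVEC endothelial cells and human MSCs as stroma. AhR antagonists were paired with standard or investigational drugs, each dosed in half-log steps down from near clinical Cmax, or from 10 microM where Cmax was unknown.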

[1] = second compound 0.1 µM, first compound 0.0316 µM
[2] = second compound 0.1 µM, first compound 0.1 µM
[3] = second compound 0.1 µM, first compound 0.316 µM
[4] = second compound 0.1 µM, first compound 1 µM
[5] = second compound 0.1 µM, first compound 3.16 µM
[6] = second compound 0.1 µM, first compound 10 µM
[7] = second compound 0.316 µM, first compound 0.0316 µM
[8] = second compound 0.316 µM, first compound 0.1 µM
[9] = second compound 0.316 µM, first compound 0.316 µM
[10] = second compound 0.316 µM, first compound 1 µM
[11] = second compound 0.316 µM, first compound 3.16 µM
[12] = second compound 0.316 µM, first compound 10 µM
[13] = second compound 1 µM, first compound 0.0316 µM
[14] = second compound 1 µM, first compound 0.1 µM
[15] = second compound 1 µM, first compound 0.316 µM
[16] = second compound 1 µM, first compound 1 µM
[17] = second compound 1 µM, first compound 3.16 µM
[18] = second compound 1 µM, first compound 10 µM
[19] = second compound 3.16 µM, first compound 0.0316 µM
[20] = second compound 3.16 µM, first compound 0.1 µM
[21] = second compound 3.16 µM, first compound 0.316 µM
[22] = second compound 3.16 µM, first compound 1 µM
[23] = second compound 3.16 µM, first compound 3.16 µM
[24] = second compound 3.16 µM, first compound 10 µM
[25] = second compound 10 µM, first compound 0.0316 µM
[26] = second compound 10 µM, first compound 0.1 µM
[27] = second compound 10 µM, first compound 0.316 µM
[28] = second compound 10 µM, first compound 1 µM
[29] = second compound 10 µM, first compound 3.16 µM
[30] = second compound 10 µM, first compound 10 µM
[31] = second compound 0.1 µM, first compound 0.00316 µM
[32] = second compound 0.1 µM, first compound 0.01 µM
[33] = second compound 0.316 µM, first compound 0.00316 µM
[34] = second compound 0.316 µM, first compound 0.01 µM
[35] = second compound 1 µM, first compound 0.00316 µM
[36] = second compound 1 µM, first compound 0.01 µM
[37] = second compound 3.16 µM, first compound 0.00316 µM
[38] = second compound 3.16 µM, first compound 0.01 µM
[39] = second compound 10 µM, first compound 0.00316 µM
[40] = second compound 10 µM, first compound 0.01 µM

SMILES | IC50 (second compound 0.1 µM) | IC50 (second compound 0.316 µM) | IC50 (second compound 1 µM) | IC50 (second compound 3.16 µM) | IC50 (second compound 10 µM) | viability, T/C [1] | viability, T/C [2] | viability, T/C [3] | viability, T/C [4] | viability, T/C [7] | viability, T/C [8] | viability, T/C [9] | viability, T/C [10] | viability, T/C [13] | viability, T/C [14] | viability, T/C [15] | viability, T/C [16] | viability, T/C [19] | viability, T/C [20] | viability, T/C [21] | also measured
CC(C)c1c(-c2ccccc2)nc2c(C#N)c[nH]n2c1=O + Cc1ccccc1N=Nc1ccc(NC(=O)c2ccnn2C)c(C)c1 | > 10000 nM | > 10000 nM | > 10000 nM | > 10000 nM | > 10000 nM | 102% | 99.4% | 108% | 103% | 105% | 113% | 119% | 99% | 103% | 103% | 106% | 101% | 96% | 94.7% | 97.1% | viability, T/C [5]: 91.4%; viability, T/C [6]: 100%; viability, T/C [11]: 112%; viability, T/C [12]: 104%; viability, T/C [17]: 105%; viability, T/C [18]: 96.6%; viability, T/C [22]: 88.1%; viability, T/C [23]: 91.1%; viability, T/C [24]: 96%; viability, T/C [25]: 64.4%; viability, T/C [26]: 66%; viability, T/C [27]: 70.1%; viability, T/C [28]: 71.2%; viability, T/C [29]: 69.4%; viability, T/C [30]: 67.6%
CC1COCCN1c1cc(-c2ccnn2C)c2ccnc(-c3ccn[nH]3)c2n1 (stereo not given) + Cc1ccccc1N=Nc1ccc(NC(=O)c2ccnn2C)c(C)c1 | 315 nM | 292 nM | 266 nM | 283 nM | 182 nM | 97% | 80.8% | 48.9% | 35% | 109% | 88% | 46.6% | 39.1% | 109% | 85.6% | 44.2% | 32.1% | 89.7% | 78% | 43.5% | viability, T/C [31]: 107%; viability, T/C [32]: 109%; viability, T/C [33]: 105%; viability, T/C [34]: 128%; viability, T/C [35]: 106%; viability, T/C [36]: 109%; viability, T/C [37]: 106%; viability, T/C [38]: 97.5%; viability, T/C [22]: 37%; viability, T/C [39]: 69.1%; viability, T/C [40]: 64.7%; viability, T/C [25]: 65%; viability, T/C [26]: 59.8%; viability, T/C [27]: 40.1%; viability, T/C [28]: 41.9%
COc1ccc([C@@H](O)c2cc(-c3ncnc4cc(N5CCOCC5)ccc34)c(F)cc2Cl)nn1 + Cc1ccccc1N=Nc1ccc(NC(=O)c2ccnn2C)c(C)c1 | 3400 nM | 4790 nM | 3330 nM | 2870 nM | 3080 nM | 106% | 112% | 92.8% | 82.6% | 116% | 108% | 99.4% | 89.8% | 107% | 106% | 100% | 80.3% | 98.7% | 93.2% | 86.9% | viability, T/C [5]: 49.5%; viability, T/C [6]: 32.2%; viability, T/C [11]: 58.4%; viability, T/C [12]: 31.8%; viability, T/C [17]: 50.8%; viability, T/C [18]: 34.5%; viability, T/C [22]: 77.8%; viability, T/C [23]: 46.1%; viability, T/C [24]: 30.5%; viability, T/C [25]: 74.3%; viability, T/C [26]: 68.2%; viability, T/C [27]: 73.9%; viability, T/C [28]: 63.1%; viability, T/C [29]: 50.1%; viability, T/C [30]: 32.9%
COc1cccc2c1C(=O)c1c(O)c3c(c(O)c1C2=O)CC(O)(C(=O)CO)CC3OC1CC(N)C(O)C(C)O1 (stereo not given) + Cc1cncc(-c2nc(NCCc3c[nH]c4ccccc34)c3ncn(C(C)C)c3n2)c1 | 561 nM | 480 nM | 363 nM | 315 nM | < 31.6 nM | 90.3% | 87.7% | 73.5% | 26.6% | 97.1% | 87.5% | 68.2% | 19.3% | 92.9% | 80.5% | 56.7% | 12.3% | 62.1% | 52.9% | 50.1% | viability, T/C [5]: 3.41%; viability, T/C [6]: 3.51%; viability, T/C [11]: 3.19%; viability, T/C [12]: 3.19%; viability, T/C [17]: 2.37%; viability, T/C [18]: 2.76%; viability, T/C [22]: 5.82%; viability, T/C [23]: 1.65%; viability, T/C [24]: 1.75%; viability, T/C [25]: 6.81%; viability, T/C [26]: 6.99%; viability, T/C [27]: 11.9%; viability, T/C [28]: 0.55%; viability, T/C [29]: 0.74%; viability, T/C [30]: 0.83%
Nc1ncn(C2CC(O)C(CO)O2)c(=O)n1 (stereo not given) + Cc1cncc(-c2nc(NCCc3c[nH]c4ccccc34)c3ncn(C(C)C)c3n2)c1 | > 1000 nM | > 1000 nM | > 1000 nM | > 1000 nM | < 3.16 nM | 111% | 112% | 108% | 106% | 119% | 111% | 106% | 102% | 112% | 108% | 112% | 108% | 82.6% | 74.4% | 77.4% | viability, T/C [31]: 105%; viability, T/C [32]: 114%; viability, T/C [33]: 116%; viability, T/C [34]: 110%; viability, T/C [35]: 109%; viability, T/C [36]: 105%; viability, T/C [37]: 73.1%; viability, T/C [38]: 76.2%; viability, T/C [22]: 75.7%; viability, T/C [39]: 6.02%; viability, T/C [40]: 6.62%; viability, T/C [25]: 6.65%; viability, T/C [26]: 6.53%; viability, T/C [27]: 6.26%; viability, T/C [28]: 6.45%
